For orientation: pEC50 means the EC50 on a negative log10 scale, so that one unit is a factor of ten.

Experimental findings from paper PMC10707724, “Dual Effects of 3-epi-betulin from Daphniphyllum glaucescens in Suppressing SARS-CoV-2-Induced Inflammation and Inhibiting Virus Entry” (International Journal of Molecular Sciences, 2023) are described below.

pEC50: −log10 of the molar value.

What all share (format): cell-based
Test [1] concerns SARS-CoV-2 Omicron (BA.1). The test is described as follows: microbe, parasite or virus in culture. The following applies: Omicron (BA.1), compared with the other variants.
Test [2] relates to SARS-CoV-2 SEMpv (N501Y). To be noted: read-out: EC50, pseudovirus entry.
Test [3] has as its system SARS-CoV-2 SEMpv (D614G). The following applies: read-out: EC50, pseudovirus entry.

On to `C=C(C)[C@@H]1CC[C@]2(CO)CC[C@]3(C)[C@H](CC[C@@H]4[C@@]5(C)CC[C@@H](O)C(C)(C)[C@@H]5CC[C@]43C)[C@@H]12` [Compound 5, 3-epi-Betulin], for which the “inhibition activity against variant, in words” value in test [1] is “did not perform as well”. For the same compound, the figures for the pEC50 in test [2] and in test [3] were 4.88 and 4.90, respectively.
